Experiments:
[1] = DPPH radical scavenging activity; assay type: functional
[2] = Cytotoxicity against human […] cells after 24 hrs by SRB assay; assay type: functional, cell-based
P388 = assay: Cytotoxicity against mouse P388 cells after 72 hrs by MTT assay; assay type: functional, cell-based; conditions: P388, 72 h
Bel-7402 = assay: Cytotoxicity against human BEL-7402 cells after 24 hrs by SRB assay; assay type: functional, cell-based; conditions: Bel-7402, 24 h
HL-60 = assay: Cytotoxicity against human HL60 cells after 72 hrs by MTT assay; assay type: functional, cell-based; conditions: HL-60, 72 h

O=C1O[C@H]([C@@H](O)CO)C(O)=C1O [ASCORBIC ACID]
IC50 [1]: 22 µM

C=CC(C)(C)c1[nH]c2c(CC=C(C)C)cc(CC=C(C)C)cc2c1C[C@@H]1NC(=O)[C@H](C)NC1=O [ECHINULIN]
IC50 [1]: 569 µM

C=CC(C)(C)c1[nH]c2ccc(CC=C(C)C)cc2c1/C=C1\NC(=O)[C@H](C)NC1=O [ISOECHINULIN A]
IC50 [1]: 98 µM

C=CC(C)(C)c1[nH]c2ccccc2c1/C=c1\[nH]c(=O)c(=C)[nH]c1=O [NEOECHINULIN B]
IC50 [1]: 65 µM

CC(=O)O[C@H]1C(=O)[C@@]2(C)[C@H]([C@H](OC(=O)c3ccccc3)[C@]3(O)C[C@H](OC(=O)[C@H](O)[C@@H](NC(=O)c4ccccc4)c4ccccc4)C(C)=C1C3(C)C)[C@]1(OC(C)=O)CO[C@@H]1C[C@@H]2O [PACLITAXEL]
IC50 [2]: 0.93 µM
IC50 (P388): 0.93 µM
IC50 (Bel-7402): 0.93 µM
IC50 (HL-60): 0.93 µM

C=CC(C)(C)c1[nH]c2ccccc2c1C[C@@H]1NC(=O)[C@H](C)NC1=O [PREECHINULIN]
IC50 [1]: 1000 µM

C=CC(C)(C)c1[nH]c2ccc(CC=C(C)C)cc2c1C[C@@H]1NC(=O)[C@H](C)NC1=O [TARDIOXOPIPERAZINE A]
IC50 [1]: 912 µM

C=CC(C)(C)c1[nH]c2c(CC=C(C)C)cccc2c1C[C@@H]1NC(=O)[C@H](C)NC1=O [TARDIOXOPIPERAZINE B]
IC50 [1]: 899 µM

C=CC(C)(C)c1[nH]c2ccc(C[C@@H](O)C(C)(C)Cl)cc2c1/C=C1\NC(=O)[C@H](C)NC1=O [VARIECOLORIN A]
IC50 [2]: > 50 µM
IC50 [1]: 79 µM
IC50 (P388): > 50 µM
IC50 (Bel-7402): > 50 µM
IC50 (HL-60): > 50 µM

C=CC(C)(C)c1[nH]c2ccc(C[C@@H](Cl)C(C)(C)O)cc2c1/C=C1\NC(=O)[C@H](C)NC1=O [VARIECOLORIN B]
IC50 [2]: > 50 µM
IC50 [1]: 97 µM
IC50 (P388): > 50 µM
IC50 (Bel-7402): > 50 µM
IC50 (HL-60): > 50 µM

C=CC(C)(C)c1[nH]c2ccc(C[C@@H](O)C(=C)C)cc2c1/C=C1\NC(=O)[C@H](C)NC1=O [VARIECOLORIN C]
IC50 [2]: > 50 µM
IC50 [1]: 75 µM
IC50 (P388): > 50 µM
IC50 (Bel-7402): > 50 µM
IC50 (HL-60): > 50 µM

C=CC(C)(C)c1[nH]c2ccc(C[C@H]3OC(C)(C)OC3(C)C)cc2c1/C=C1\NC(=O)[C@H](C)NC1=O [VARIECOLORIN D]
IC50 [2]: > 50 µM
IC50 [1]: 88 µM
IC50 (P388): > 50 µM
IC50 (Bel-7402): > 50 µM
IC50 (HL-60): > 50 µM

C=CC(C)(C)c1[nH]c2ccc(CC(=O)C(C)C)cc2c1/C=C1\NC(=O)[C@H](C)NC1=O [VARIECOLORIN E]
IC50 [2]: > 50 µM
IC50 [1]: 79 µM
IC50 (P388): > 50 µM
IC50 (Bel-7402): > 50 µM
IC50 (HL-60): > 50 µM

C=CC(C)(C)c1[nH]c2c(C[C@@H](O)C(C)(C)Cl)cccc2c1/C=C1\NC(=O)[C@H](C)NC1=O [VARIECOLORIN F]
IC50 [2]: > 50 µM
IC50 [1]: 77 µM
IC50 (P388): > 50 µM
IC50 (Bel-7402): > 50 µM
IC50 (HL-60): > 50 µM

C=CC(C)(C)c1[nH]c2c(CC=C(C)C)cccc2c1/C=C1\NC(=O)[C@H](C)NC1=O [VARIECOLORIN G]
IC50 [2]: > 50 µM
IC50 [1]: 86 µM
IC50 (P388): > 50 µM
IC50 (Bel-7402): > 50 µM
IC50 (HL-60): > 50 µM

C=CC(C)(C)c1[nH]c2ccccc2c1/C=C1\NC(=O)C(C)(OC)NC1=O (stereo unspecified) [VARIECOLORIN H]
IC50 [2]: > 50 µM
IC50 [1]: 99 µM
IC50 (P388): > 50 µM
IC50 (Bel-7402): > 50 µM
IC50 (HL-60): > 50 µM

C=CC(C)(C)c1[nH]c2ccc(CC=C(C)C)cc2c1/C=C1\NC(=O)C(C)(OC)NC1=O (stereo unspecified) [VARIECOLORIN I]
IC50 [2]: > 50 µM
IC50 [1]: 79 µM
IC50 (P388): > 50 µM
IC50 (Bel-7402): > 50 µM
IC50 (HL-60): > 50 µM

C=CC(C)(C)c1[nH]c2ccc(CC=C(C)C)cc2c1/C=C1\NC(=O)C(=O)NC1=O [VARIECOLORIN J]
IC50 [2]: > 50 µM
IC50 [1]: 102 µM
IC50 (P388): > 50 µM
IC50 (Bel-7402): > 50 µM
IC50 (HL-60): > 50 µM

C=CC(C)(C)c1[nH]c2cc3c(cc2c1/C=C1\NC(=O)[C@H](C)NC1=O)C[C@H](C(C)(C)O)OC3(C)C [VARIECOLORIN K]
IC50 [2]: > 50 µM
IC50 [1]: 89 µM
IC50 (P388): > 50 µM
IC50 (Bel-7402): > 50 µM
IC50 (HL-60): > 50 µM

C=CC(C)(C)c1[nH]c2ccc(CC=C(C)C)c(CC=C(C)C)c2c1C[C@@H]1NC(=O)[C@H](C)NC1=O [VARIECOLORIN L]
IC50 [2]: > 50 µM
IC50 [1]: 623 µM
IC50 (P388): > 50 µM
IC50 (Bel-7402): > 50 µM
IC50 (HL-60): > 50 µM

Source: ChEMBL document CHEMBL1141309, “Isoechinulin-type alkaloids, variecolorins A-L, from halotolerant Aspergillus variecolor” (J Nat Prod, 2007)
